In ChEMBL document CHEMBL1201862, “PubChem BioAssay data set” (2004):
The source made the active and inactive calls.

Columns and labels:
[1] = target: T1, Caspase-3 (Homo sapiens, UniProt P42574); type: functional;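 also: Dose-response selectivity test against caspase-3 for candidate inhibitors of sentrin-specific proteases (SENPs)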
T1 sequence (P42574 whole entry): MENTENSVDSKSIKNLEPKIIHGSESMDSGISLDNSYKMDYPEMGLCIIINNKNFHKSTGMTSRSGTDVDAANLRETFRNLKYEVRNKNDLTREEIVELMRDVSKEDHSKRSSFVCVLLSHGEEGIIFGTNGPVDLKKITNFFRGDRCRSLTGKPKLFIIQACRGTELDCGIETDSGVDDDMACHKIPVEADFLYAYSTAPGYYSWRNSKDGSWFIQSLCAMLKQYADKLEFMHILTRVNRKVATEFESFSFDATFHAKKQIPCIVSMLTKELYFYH

[2] = target: T2, Sentrin-specific protease 6 (Homo sapiens, UniProt Q9GZR1); type: functional;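 also: Luminescence-based dose-response confirmatory assay of SENP6 inhibition, following up an ultra-high-throughput screen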
T2 sequence (Q9GZR1 whole entry): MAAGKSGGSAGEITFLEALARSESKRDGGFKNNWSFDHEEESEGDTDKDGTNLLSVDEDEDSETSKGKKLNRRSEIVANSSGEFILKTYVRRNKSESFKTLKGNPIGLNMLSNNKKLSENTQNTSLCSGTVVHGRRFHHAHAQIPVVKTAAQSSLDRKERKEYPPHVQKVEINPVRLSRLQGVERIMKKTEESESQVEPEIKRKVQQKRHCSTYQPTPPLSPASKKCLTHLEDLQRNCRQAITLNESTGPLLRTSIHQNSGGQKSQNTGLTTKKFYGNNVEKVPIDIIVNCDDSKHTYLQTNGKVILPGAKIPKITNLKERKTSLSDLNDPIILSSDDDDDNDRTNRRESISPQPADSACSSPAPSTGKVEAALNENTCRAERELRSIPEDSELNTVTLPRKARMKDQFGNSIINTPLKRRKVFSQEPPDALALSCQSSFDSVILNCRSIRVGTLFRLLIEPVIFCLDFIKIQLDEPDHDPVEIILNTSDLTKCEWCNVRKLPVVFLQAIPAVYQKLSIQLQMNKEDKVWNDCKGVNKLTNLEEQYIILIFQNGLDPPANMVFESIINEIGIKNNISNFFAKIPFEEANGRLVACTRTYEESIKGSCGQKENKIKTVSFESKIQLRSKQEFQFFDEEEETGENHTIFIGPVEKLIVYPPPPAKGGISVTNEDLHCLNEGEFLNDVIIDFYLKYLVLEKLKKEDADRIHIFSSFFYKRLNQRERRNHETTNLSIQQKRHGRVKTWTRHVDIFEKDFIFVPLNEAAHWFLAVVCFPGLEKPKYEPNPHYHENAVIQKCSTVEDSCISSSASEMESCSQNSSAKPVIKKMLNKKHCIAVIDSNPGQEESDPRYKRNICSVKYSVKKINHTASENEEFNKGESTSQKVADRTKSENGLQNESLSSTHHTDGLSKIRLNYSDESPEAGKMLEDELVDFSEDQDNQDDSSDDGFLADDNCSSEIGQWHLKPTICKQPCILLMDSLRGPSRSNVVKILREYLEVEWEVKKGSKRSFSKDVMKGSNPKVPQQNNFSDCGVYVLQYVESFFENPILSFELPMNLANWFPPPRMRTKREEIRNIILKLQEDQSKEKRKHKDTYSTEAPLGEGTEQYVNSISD

[3] = target: T3, Sentrin-specific protease 7 (Homo sapiens, UniProt Q9BQF6); type: functional;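 also: Luminescence-based dose-response confirmation of ultra-high-throughput screening hits, measuring inhibition of SENP7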
T3 sequence (Q9BQF6 whole entry): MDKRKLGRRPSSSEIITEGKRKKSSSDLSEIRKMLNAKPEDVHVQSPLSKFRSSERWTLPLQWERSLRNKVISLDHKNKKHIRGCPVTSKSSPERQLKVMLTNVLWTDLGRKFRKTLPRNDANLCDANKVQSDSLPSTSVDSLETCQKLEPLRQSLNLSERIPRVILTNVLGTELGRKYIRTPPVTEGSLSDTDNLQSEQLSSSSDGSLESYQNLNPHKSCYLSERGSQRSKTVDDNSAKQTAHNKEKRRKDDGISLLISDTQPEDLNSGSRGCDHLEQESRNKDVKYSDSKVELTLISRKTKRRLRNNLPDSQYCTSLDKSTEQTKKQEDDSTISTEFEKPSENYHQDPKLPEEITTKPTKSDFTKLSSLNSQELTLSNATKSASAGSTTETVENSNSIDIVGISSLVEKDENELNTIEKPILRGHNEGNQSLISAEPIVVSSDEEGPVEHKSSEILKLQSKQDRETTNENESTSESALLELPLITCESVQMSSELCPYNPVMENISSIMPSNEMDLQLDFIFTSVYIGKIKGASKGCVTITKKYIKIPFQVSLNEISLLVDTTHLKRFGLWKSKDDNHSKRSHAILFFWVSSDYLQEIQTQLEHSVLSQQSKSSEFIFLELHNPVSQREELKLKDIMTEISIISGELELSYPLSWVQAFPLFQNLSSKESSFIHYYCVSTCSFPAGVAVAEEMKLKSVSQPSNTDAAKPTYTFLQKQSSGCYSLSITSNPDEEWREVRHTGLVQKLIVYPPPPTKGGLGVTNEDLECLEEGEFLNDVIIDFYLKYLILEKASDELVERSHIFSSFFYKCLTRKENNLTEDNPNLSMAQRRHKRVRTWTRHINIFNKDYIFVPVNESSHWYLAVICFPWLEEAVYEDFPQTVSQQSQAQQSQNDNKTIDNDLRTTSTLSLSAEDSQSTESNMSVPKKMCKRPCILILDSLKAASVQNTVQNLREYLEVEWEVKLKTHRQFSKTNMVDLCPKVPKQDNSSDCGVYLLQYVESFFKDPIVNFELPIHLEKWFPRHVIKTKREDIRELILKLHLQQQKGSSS

[4] = target: T4, Sentrin-specific protease 8 (Homo sapiens, UniProt Q96LD8); type: functional;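 also: luminescence read-out of SENP8 inhibition, dose-response confirmation following an ultra-high-throughput screen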
T4 sequence (Q96LD8 whole entry): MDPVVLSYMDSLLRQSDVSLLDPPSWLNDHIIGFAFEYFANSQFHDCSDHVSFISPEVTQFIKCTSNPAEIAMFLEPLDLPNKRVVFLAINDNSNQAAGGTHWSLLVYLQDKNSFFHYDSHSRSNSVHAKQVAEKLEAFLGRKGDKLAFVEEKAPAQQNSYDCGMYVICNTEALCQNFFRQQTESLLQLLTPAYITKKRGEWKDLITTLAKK

[5] = tested on: CHO; experiment: CHO cell viability loss, potency – luminescence, cytotoxicity control for TLR9-MyD88 binding inhibitor project, dose response (AID 588339); type: functional, cell-based, hamster; details: Cricetulus griseus;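 also: CHO cells stably coexpressing TLR9 and MyD88 fusions from primary screen; compound exposure lasted 48 hours before viability readout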
[6] = target: Beta Lactamase (Pseudomonas aeruginosa, UniProt Q932Y6); experiment: BLA reporter interference, concentration series – BLA reporter cells, FRET fluorescence, artefact control for TLR9-MyD88 binding inhibitor project, dose response (AID 588341); type: cell-based;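 also: cell based assay in CHO-K1 cells stably expressing beta-lactamase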
Beta Lactamase, sequence (Q932Y6 whole entry): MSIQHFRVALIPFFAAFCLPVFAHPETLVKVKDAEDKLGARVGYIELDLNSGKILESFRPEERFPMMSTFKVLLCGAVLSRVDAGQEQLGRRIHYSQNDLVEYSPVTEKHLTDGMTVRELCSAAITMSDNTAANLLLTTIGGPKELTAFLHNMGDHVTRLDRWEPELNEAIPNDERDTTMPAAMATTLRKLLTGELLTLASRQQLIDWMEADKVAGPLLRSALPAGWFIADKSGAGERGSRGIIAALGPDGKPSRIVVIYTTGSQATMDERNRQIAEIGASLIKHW

[7] = target: Luciferin 4-monooxygenase (Photinus pyralis, UniProt P08659); experiment: inhibition of purified Photinus pyralis luciferase – biochemical, luminescence, dose response (AID 1891)
Luciferin 4-monooxygenase, sequence (P08659 whole entry): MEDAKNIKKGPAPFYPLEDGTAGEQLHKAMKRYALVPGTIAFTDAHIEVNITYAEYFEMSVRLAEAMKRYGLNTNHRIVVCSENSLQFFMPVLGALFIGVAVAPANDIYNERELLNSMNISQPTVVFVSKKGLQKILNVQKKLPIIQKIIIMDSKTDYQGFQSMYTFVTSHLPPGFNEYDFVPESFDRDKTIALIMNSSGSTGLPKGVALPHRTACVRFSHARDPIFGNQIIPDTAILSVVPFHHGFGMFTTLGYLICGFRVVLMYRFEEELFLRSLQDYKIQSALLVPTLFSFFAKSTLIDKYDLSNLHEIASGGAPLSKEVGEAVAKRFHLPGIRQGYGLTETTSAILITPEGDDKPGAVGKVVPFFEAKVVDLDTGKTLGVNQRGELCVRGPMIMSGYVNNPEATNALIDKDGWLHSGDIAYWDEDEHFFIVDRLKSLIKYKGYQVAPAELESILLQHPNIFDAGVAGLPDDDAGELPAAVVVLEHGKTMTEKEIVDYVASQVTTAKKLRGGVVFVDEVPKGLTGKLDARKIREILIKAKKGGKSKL

[8] = target: Endoplasmic reticulum aminopeptidase 1 (Homo sapiens, UniProt Q9NZ08); experiment: inhibition of human ERAP1 enzyme activity – biochemical, cherry-pick, set 2, plate reader, dose response (AID 743314)
Endoplasmic reticulum aminopeptidase 1, sequence (Q9NZ08 whole entry): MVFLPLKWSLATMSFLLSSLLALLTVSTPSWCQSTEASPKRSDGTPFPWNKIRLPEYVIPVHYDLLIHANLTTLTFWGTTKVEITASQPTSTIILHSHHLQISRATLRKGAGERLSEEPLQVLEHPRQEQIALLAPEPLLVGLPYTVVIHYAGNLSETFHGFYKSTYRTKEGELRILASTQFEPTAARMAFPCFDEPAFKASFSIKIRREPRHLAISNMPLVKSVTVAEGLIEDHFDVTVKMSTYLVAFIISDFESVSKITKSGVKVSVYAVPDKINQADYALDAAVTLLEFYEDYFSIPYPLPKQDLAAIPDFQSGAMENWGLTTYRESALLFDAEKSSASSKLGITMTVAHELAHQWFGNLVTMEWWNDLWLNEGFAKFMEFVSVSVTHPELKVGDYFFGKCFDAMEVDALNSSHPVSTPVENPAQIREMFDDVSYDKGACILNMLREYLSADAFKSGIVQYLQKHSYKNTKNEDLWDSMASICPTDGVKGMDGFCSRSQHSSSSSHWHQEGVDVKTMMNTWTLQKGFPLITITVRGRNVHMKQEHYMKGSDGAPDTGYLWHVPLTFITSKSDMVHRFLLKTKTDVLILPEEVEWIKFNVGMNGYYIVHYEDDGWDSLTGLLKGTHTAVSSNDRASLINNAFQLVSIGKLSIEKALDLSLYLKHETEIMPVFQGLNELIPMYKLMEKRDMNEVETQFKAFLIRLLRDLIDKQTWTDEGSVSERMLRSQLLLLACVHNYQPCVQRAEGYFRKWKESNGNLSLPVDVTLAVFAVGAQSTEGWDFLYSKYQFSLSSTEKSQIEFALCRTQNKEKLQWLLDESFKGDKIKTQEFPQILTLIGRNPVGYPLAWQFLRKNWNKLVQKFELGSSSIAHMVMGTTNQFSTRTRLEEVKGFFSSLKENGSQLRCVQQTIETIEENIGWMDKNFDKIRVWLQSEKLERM

[9] = Luminescence Cell-Based Dose Confirmation HTS to Identify Inhibitors of Platelet Dense Granule Release. [Related pubchem assays: 1663 (Primary HTS), 1678 (Summary of Project)]; type: functional
[10] = target: T5, Apoptotic protease-activating factor 1 (Homo sapiens, UniProt O14727); type: functional
T5 sequence (O14727 whole entry): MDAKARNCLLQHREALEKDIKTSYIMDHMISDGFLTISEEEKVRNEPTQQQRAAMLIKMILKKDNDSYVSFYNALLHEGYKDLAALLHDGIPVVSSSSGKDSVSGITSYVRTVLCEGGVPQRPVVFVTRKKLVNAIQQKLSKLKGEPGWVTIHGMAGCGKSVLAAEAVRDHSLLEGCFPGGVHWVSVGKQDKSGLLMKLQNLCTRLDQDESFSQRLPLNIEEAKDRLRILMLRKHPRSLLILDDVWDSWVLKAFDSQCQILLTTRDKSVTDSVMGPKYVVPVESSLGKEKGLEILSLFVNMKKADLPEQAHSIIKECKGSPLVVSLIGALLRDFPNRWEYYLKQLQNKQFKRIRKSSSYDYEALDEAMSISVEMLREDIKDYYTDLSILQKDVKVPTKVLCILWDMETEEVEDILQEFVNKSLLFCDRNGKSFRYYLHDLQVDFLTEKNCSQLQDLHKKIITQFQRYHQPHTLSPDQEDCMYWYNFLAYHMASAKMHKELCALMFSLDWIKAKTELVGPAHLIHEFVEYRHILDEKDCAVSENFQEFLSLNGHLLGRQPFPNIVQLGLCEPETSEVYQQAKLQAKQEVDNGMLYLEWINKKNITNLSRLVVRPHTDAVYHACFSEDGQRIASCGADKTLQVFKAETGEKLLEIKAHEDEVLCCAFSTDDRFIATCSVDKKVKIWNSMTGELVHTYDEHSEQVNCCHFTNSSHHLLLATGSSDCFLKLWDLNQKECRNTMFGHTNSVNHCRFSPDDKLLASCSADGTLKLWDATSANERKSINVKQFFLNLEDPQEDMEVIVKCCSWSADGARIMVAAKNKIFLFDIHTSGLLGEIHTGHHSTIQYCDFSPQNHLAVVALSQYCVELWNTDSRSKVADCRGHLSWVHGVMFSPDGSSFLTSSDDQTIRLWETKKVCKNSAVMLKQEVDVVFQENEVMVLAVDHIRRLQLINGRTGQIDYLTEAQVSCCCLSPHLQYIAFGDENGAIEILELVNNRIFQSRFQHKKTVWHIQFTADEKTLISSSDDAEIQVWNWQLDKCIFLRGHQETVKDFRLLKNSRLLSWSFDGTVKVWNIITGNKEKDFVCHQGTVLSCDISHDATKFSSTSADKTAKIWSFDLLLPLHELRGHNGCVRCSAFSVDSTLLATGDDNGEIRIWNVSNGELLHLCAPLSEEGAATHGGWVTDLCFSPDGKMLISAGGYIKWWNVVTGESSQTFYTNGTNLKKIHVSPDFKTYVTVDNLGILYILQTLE

Row | IC50 [1] | IC50 [2] | IC50 [3] | Structure (SMILES) | IC50 [4] | IC50 [5] | IC50 [6] | other results
1 | 28.2 µM (active) | 33.2 µM (active) | 6.55 µM (active) | O=C1CC(/C=C/c2ccccc2)=Nc2ccccc2N1 | 48.1 µM (active) |  |  | 
2 |  |  |  | CC(=O)Oc1cccc(N2C(=O)c3cccc4c([N+](=O)[O-])ccc(c34)C2=O)c1 |  | 5.26 µM (active) | 4.5 µM (active) | 
3 |  |  |  | COc1ccc(-c2cc3ccc(O)cc3oc2=O)cc1OC |  | > 49.8 µM (inactive) | 5.23 µM (active) | EC50 [7]: 1.23 µM (active); AC50 [8]: 3.21 µM (active); EC50 [9]: 335 nM (active)
4 | 40.7 µM (active) | 4.89 µM (active) | 4.75 µM (active) | COc1ccc(-c2cn(CCC(=O)O)c(C)n2)cc1 | 4.56 µM (active) |  |  | 
5 |  |  |  | CCN(CC(=O)Nc1c(F)cccc1F)C(=O)Cc1ccsc1 |  |  |  | IC50 [10]: > 100 µM (inactive)
